Values joined by “and” are separate entries in the source; they are usually repeats but may differ in a detail not shown here. Equal entries are not always repeated. Inconclusive results and toxic doses are left out. How the source made its calls: active means survival T/C of 150% or more; inactive means T/C below 125% in these data. Non-standard residues stand in square brackets, D forms with d. Residues, ends and D or L forms follow the SMILES beside them. ξ: configuration not given here. *: point of attachment. Boc = CC(C)(C)OC(=O)*; ξP = O=C(O)C1CCCN1
System: BDF1 mice, P388 leukemia ip, median survival T/C
Assay: NCI In Vivo Anticancer Drug Screen. Data for tumor model P388 Leukemia (intraperitoneal) in B6D2F1 (BDF1) mice
Conditions: endpoint: median survival time, higher = longer survival
Method in brief: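 Vehicle-dosed animals serve as the reference; survival of compound-dosed, tumour-implanted mice is divided by it.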

[1] = dose: 50.0 mg/kg/injection, schedule: Q01DX005 (ip), vehicle: saline with Tween-80
[2] = dose: 100.0 mg/kg/injection, schedule: Q04DX003 (ip), vehicle: Klucel (hydroxypropylcellulose) (HPC)
[3] = dose: 200.0 mg/kg/injection, schedule: Q04DX003 (ip), vehicle: Klucel (hydroxypropylcellulose) (HPC)
[4] = dose: 100.0 mg/kg/injection, schedule: Q01DX009 (ip), vehicle: Klucel (hydroxypropylcellulose) (HPC)
[5] = dose: 200.0 mg/kg/injection, schedule: Q01DX009 (ip), vehicle: Klucel (hydroxypropylcellulose) (HPC)
[6] = dose: 400.0 mg/kg/injection, schedule: Q01DX009 (ip), vehicle: Klucel (hydroxypropylcellulose) (HPC)
[7] = dose: 400.0 mg/kg/injection, schedule: Q04DX003 (ip), vehicle: Klucel (hydroxypropylcellulose) (HPC)
[8] = dose: 50.0 mg/kg/injection, schedule: Q04DX003 (ip), vehicle: saline
[9] = dose: 100.0 mg/kg/injection, schedule: Q04DX003 (ip), vehicle: saline
[10] = dose: 200.0 mg/kg/injection, schedule: Q04DX003 (ip), vehicle: saline
[11] = dose: 100.0 mg/kg/injection, schedule: Q01DX009 (ip), vehicle: saline with Tween-80
[12] = dose: 100.0 mg/kg/injection, schedule: Q04DX003 (ip), vehicle: saline with Tween-80
[13] = dose: 200.0 mg/kg/injection, schedule: Q01DX009 (ip), vehicle: saline with Tween-80
[14] = dose: 200.0 mg/kg/injection, schedule: Q04DX003 (ip), vehicle: saline with Tween-80
[15] = dose: 50.0 mg/kg/injection, schedule: Q01DX009 (ip), vehicle: saline with Tween-80
[16] = dose: 400.0 mg/kg/injection, schedule: Q04DX003 (ip), vehicle: saline

Measured: T/C

[Co].[N-]=C=S.[N-]=C=S.[N-]=C=S.[NH2-].[NH2-].[NH2-]
inactive: dose: 12.5 mg/kg/injection, schedule: Q01DX005 (ip), vehicle: saline with Tween-80 107 % of control | dose: 25.0 mg/kg/injection, schedule: Q01DX005 (ip), vehicle: saline with Tween-80 110 % of control | [1] 117 % of control | dose: 100.0 mg/kg/injection, schedule: Q01DX001 (ip), vehicle: suspension in saline 98 % of control | dose: 200.0 mg/kg/injection, schedule: Q01DX001 (ip), vehicle: suspension in saline 120 % of control | dose: 400.0 mg/kg/injection, schedule: Q01DX001 (ip), vehicle: suspension in saline 98 % of control

CCC(C)c1ccccc1OC(=O)Nc1ccc(OC)cc1 (stereo not given)
inactive: dose: 50.0 mg/kg/injection, schedule: Q04DX003 (ip), vehicle: Klucel (hydroxypropylcellulose) (HPC) 95 % of control | [2] 100 % of control | [3] 100 % of control

CC1CC[N-]CC1.CC1CC[N-]CC1.CC1CC[N-]CC1.CC1CC[N-]CC1.O=C([O-])C(=O)[O-].O=C([O-])C(=O)[O-].[Nb+5].[O-][O-].[O-][O-].[Pt+4]
inactive: dose: 0.39 mg/kg/injection, schedule: Q01DX009 (ip), vehicle: saline 106 % of control | dose: 0.78 mg/kg/injection, schedule: Q01DX009 (ip), vehicle: saline 102 % of control | dose: 1.56 mg/kg/injection, schedule: Q01DX009 (ip), vehicle: saline 115 % of control | dose: 3.12 mg/kg/injection, schedule: Q01DX009 (ip), vehicle: saline 102 % of control

C=C1C(=O)OC2CC(C)C3C=CC(=O)C3(C)C(O)C12 (stereo not given)
inactive: dose: 5.0 mg/kg/injection, schedule: Q01DX009 (ip), vehicle: saline with Tween-80 113 % of control | dose: 10.0 mg/kg/injection, schedule: Q01DX009 (ip), vehicle: saline with Tween-80 112 % of control | dose: 20.0 mg/kg/injection, schedule: Q01DX009 (ip), vehicle: saline with Tween-80 115 % of control

COc1cc2c(cc1OC)-c1ncnc(-c3ccccc3)c1C2
inactive: [4] 100 % of control | [2] 108 % of control | [5] 100 % of control | [3] 91 % of control | [6] 95 % of control | [7] 95 % of control

CC(C)CC(NC(=O)CF)C(=O)O (stereo not given)
inactive: dose: 2.5 mg/kg/injection, schedule: Q01DX009 (ip), vehicle: saline 111 % of control

O=C(NNC1CCN(Cc2ccccc2)CC1)c1ccccc1
inactive: dose: 1.1 mg/kg/injection, schedule: Q04DX003 (ip), vehicle: saline with Tween-80 100 % of control | dose: 1.65 mg/kg/injection, schedule: Q04DX003 (ip), vehicle: saline with Tween-80 100 % of control | dose: 2.5 mg/kg/injection, schedule: Q04DX003 (ip), vehicle: saline with Tween-80 100 % of control | dose: 3.75 mg/kg/injection, schedule: Q04DX003 (ip), vehicle: saline with Tween-80 100 % of control | dose: 5.0 mg/kg/injection, schedule: Q04DX003 (ip), vehicle: saline with Tween-80 104 % of control | dose: 10.0 mg/kg/injection, schedule: Q04DX003 (ip), vehicle: saline with Tween-80 104 % of control

Cn1cnc([N+](=O)[O-])c1[Se]c1nc(N)nc2c1ncn2C1CC(O)C(CO)O1 (stereo not given)
inactive: [8] 95 % of control | [9] 90 % of control | [10] 90 % of control

Cc1ccc(CSc2ssc(=S)c2-c2ccccc2)cc1
inactive: dose: 100.0 mg/kg/injection, schedule: Q01DX001 (ip), vehicle: Klucel (hydroxypropylcellulose) (HPC) 104 % of control | [4] 110 % of control | dose: 200.0 mg/kg/injection, schedule: Q01DX001 (ip), vehicle: Klucel (hydroxypropylcellulose) (HPC) 104 % of control | [5] 110 % of control | dose: 400.0 mg/kg/injection, schedule: Q01DX001 (ip), vehicle: Klucel (hydroxypropylcellulose) (HPC) 109 % of control | [6] 115 % of control

CC(C)(C)OC(=O)NCC(=O)N1CCCC1C(=O)O (stereo not drawn) (Boc-Gly-[ξP]-OH)
inactive: dose: 50.0 mg/kg/injection, schedule: Q01DX005 (ip), vehicle: saline 92 % of control | dose: 100.0 mg/kg/injection, schedule: Q01DX005 (ip), vehicle: saline 90 % of control | dose: 200.0 mg/kg/injection, schedule: Q01DX005 (ip), vehicle: saline 100 % of control

Cc1cc(N(C)C)ccc1C=O
inactive: [4] 100 % of control | [2] 100 % of control | [5] 95 % of control | [6] 109 % of control | [7] 91 % of control

Cc1ccc(/C=C/C(=O)c2ccc(Cl)cc2)cc1
inactive: [11] 90 % of control | [12] 95 % of control | [13] 90 % of control | [14] 109 % of control | dose: 400.0 mg/kg/injection, schedule: Q01DX009 (ip), vehicle: saline with Tween-80 100 % of control | dose: 400.0 mg/kg/injection, schedule: Q04DX003 (ip), vehicle: saline with Tween-80 109 % of control

CCOC(=O)C(=O)c1c[nH]c2ccccc12
inactive: dose: 50.0 mg/kg/injection, schedule: Q04DX003 (ip), vehicle: saline with Tween-80 90 % of control | [4] 109 % of control | [12] 104 % of control | [5] 90 % of control | [14] 100 % of control | [6] 109 % of control

CCCCCC[N+]1(C)CC2C3C=CC(C3)C2C1 (stereo not given)
inactive: dose: 75.0 mg/kg/injection, schedule: Q01DX009 (ip), vehicle: saline 90 % of control

c1ccc2sc(SNC3CCCCC3)nc2c1
inactive: dose: 200.0 mg/kg/injection, schedule: Q04DX002 (ip), vehicle: saline 103 % of control | dose: 400.0 mg/kg/injection, schedule: Q04DX002 (ip), vehicle: saline 122 % of control

Oc1c(Cl)cc(Cl)cc1C=Nc1cc(C(F)(F)F)ccc1NCc1ccccc1
inactive: [15] 93 % of control | [11] 89 % of control | [13] 94 % of control

CC(=O)C(C(C)=O)C(Cl)C(C(C)=O)C(C)=O
inactive: [1] 99 % of control | dose: 100.0 mg/kg/injection, schedule: Q01DX005 (ip), vehicle: saline with Tween-80 92 % of control | dose: 200.0 mg/kg/injection, schedule: Q01DX005 (ip), vehicle: saline with Tween-80 99 % of control

CC12C=CC(=O)C=C1CCC1C2C(O)CC2(C)C1CCC2(O)C(=O)COC(=O)Cc1ccc(N(CCCl)CCCl)cc1 (stereo not given)
inactive: dose: 3.5 mg/kg/injection, schedule: Q01DX009 (ip), vehicle: saline 97 % of control | dose: 7.0 mg/kg/injection, schedule: Q01DX009 (ip), vehicle: saline 97 % of control | dose: 14.0 mg/kg/injection, schedule: Q01DX009 (ip), vehicle: saline 118 % of control

c1coc(-c2ncnc3c2Cc2ccccc2-3)c1
inactive: dose: 25.0 mg/kg/injection, schedule: Q01DX009 (ip), vehicle: Klucel (hydroxypropylcellulose) (HPC) 100 % of control | dose: 50.0 mg/kg/injection, schedule: Q01DX009 (ip), vehicle: Klucel (hydroxypropylcellulose) (HPC) 118 % of control | [4] 109 % of control | dose: 150.0 mg/kg/injection, schedule: Q01DX009 (ip), vehicle: Klucel (hydroxypropylcellulose) (HPC) 91 % of control

C=CCNCCN1CCN(CCCN2c3ccccc3Sc3ccc(C(F)(F)F)cc32)CC1
inactive: dose: 6.25 mg/kg/injection, schedule: Q04DX003 (ip), vehicle: saline 108 % of control and 110 % of control | dose: 12.5 mg/kg/injection, schedule: Q04DX003 (ip), vehicle: saline 87 % of control and 110 % of control | dose: 25.0 mg/kg/injection, schedule: Q04DX003 (ip), vehicle: saline 100 % of control and 118 % of control | [8] 116 % of control

CC(C)(CO)Nc1ccccc1
inactive: [9] 110 % of control | [10] 100 % of control | [16] 100 % of control

O=C(Nc1cccc(C(F)(F)F)c1)Nc1c(Oc2ccc(Cl)c(Cl)c2)ccc(Cl)c1S(=O)(=O)O
inactive: [8] 90 % of control | [9] 100 % of control | [10] 113 % of control

Cc1cccc(NS(=O)(=O)c2ccc(Cl)cc2)c1C
inactive: [9] 100 % of control | [10] 95 % of control | [16] 108 % of control

NNc1cccc(Cl)n1
inactive: [15] 103 % of control

O=C1NC(c2ccccc2Cl)Nc2ccccc21 (stereo not given)
inactive: [4] 100 % of control and 115 % of control | [5] 115 % of control and 120 % of control

Source: PubChem BioAssay AID328 (DTP/NCI, 2004)
